# Values quoted from earlier work, collected in paper PMC9318694 (Molecules, 2022).
# Like-named read-outs stand apart in the source and are kept apart here.
# Molecular target: D2R (Homo sapiens, UniProt P14416)
# Settings: read-out: KI, cited from earlier work
# [1] = Table S1, data set of actives, radio-ligand binding assays, ref ChEMBL, [50]-[70]
# Chain of D2R (P14416 whole entry): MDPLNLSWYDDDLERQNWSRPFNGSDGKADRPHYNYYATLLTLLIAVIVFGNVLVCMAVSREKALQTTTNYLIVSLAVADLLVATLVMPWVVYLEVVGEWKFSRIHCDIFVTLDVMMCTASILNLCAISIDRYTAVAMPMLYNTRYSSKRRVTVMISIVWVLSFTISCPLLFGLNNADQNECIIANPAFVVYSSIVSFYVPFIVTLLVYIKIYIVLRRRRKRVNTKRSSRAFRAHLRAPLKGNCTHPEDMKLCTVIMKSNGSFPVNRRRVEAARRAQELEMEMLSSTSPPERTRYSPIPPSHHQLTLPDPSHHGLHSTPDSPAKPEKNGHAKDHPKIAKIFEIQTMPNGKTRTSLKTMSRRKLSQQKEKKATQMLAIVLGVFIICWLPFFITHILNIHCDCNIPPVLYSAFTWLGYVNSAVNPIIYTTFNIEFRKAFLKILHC
structure (smiles),measurement,setting,value
"C=CCN1C[C@H](C(=O)N(CCCN(C)C)C(=O)NCC)C[C@@H]2c3cccc4[nH]cc(c34)C[C@H]21 [Compound 3, Cabergoline]",Ki,[1],0.7 nM
"OC1CCc2ccc(N=CN3CCc4ccccc4C3)cc21 (stereo not drawn) [Compound S68, 6-(3,4-dihydro-1H-isoquinolin-2-ylmethylideneamino)-2,3-dihydro-1H-inden-1-ol]",Ki,"Table S2, data set of inactives, radio-ligand binding (RLB) assays, ref ChEMBL, [71]-[92]",> 300000 nM
"CCCN(CCCCNC(=O)c1ccc(OCCCc2cn(CCCCCCCCn3cc(CCCOc4ccc(C(=O)NCCCCN(CCC)C5Cc6ccccc6C5)cc4OC)nn3)nn2)c(OC)c1)C1Cc2ccccc2C1 [SC2, 4,4'-(((octane-1,8-diylbis(1H-1,2,3-triazole-1,4-diyl))bis(propane-3,1-diyl))bis(oxy))bis(N-(4-((2,3-dihydro-1H-inden-2-yl)(propyl)amino)butyl)-3-methoxybenzamide)]",Ki,[1],16 nM
"CCCCn1cc(CCCOc2ccc(C(=O)NCCCCN(CCC)C3Cc4ccccc4C3)cc2OC)nn1 [SC3, 4-(3-(1-butyl-1H-1,2,3-triazol-4-yl)propoxy)-N-(4-((2,3-dihydro-1H-inden-2-yl)(propyl)amino)butyl)-3-methoxybenzamide]",Ki,[1],12 nM
"O=C1NCCc2ccc(OCCCN3CCN(c4cccc(Cl)c4Cl)CC3)cc21 [SC5, 7-(3-(4-(2,3-dichlorophenyl)piperazin-1-yl)propoxy)-3,4-dihydroisoquinolin-1(2H)-one]",Ki,[1],18 nM
"Clc1cccc(C2CCN(CCCCOc3ccc4scnc4c3)CC2)c1Cl [SC6, 5-(4-(4-(2,3-dichlorophenyl)piperidin-1-yl)butoxy)benzo[d]thiazole]",Ki,,42 nM
"Clc1cccc(C2CCN(CCCOc3ccc4scnc4c3)CC2)c1Cl [SC7, 5-(3-(4-(2,3-dichlorophenyl)piperidin-1-yl)propoxy)benzo[d]thiazole]",Ki,[1],75 nM
"Clc1cccc(N2CCN(CCCOc3ccc4scnc4c3)CC2)c1Cl [SC8, 5-(3-(4-(2,3-dichlorophenyl)piperazin-1-yl)propoxy)benzo[d]thiazole]",Ki,[1],30 nM
"C#CC1=CC[C@H](N(CCC)CCCCNC(=O)c2cc3ccccn3n2)CC1 [SC12, (R)-N-(4-((4-ethynylcyclohex-3-en-1-yl)(propyl)amino)butyl)pyrazolo[1,5-a]pyridine-2-carboxamide]",Ki,,5.5 nM
"C#CC1=CC[C@H](N(CCC)CCCCNC(=O)c2cnn3ccccc23)CC1 [SC13, (R)-N-(4-((4-ethynylcyclohex-3-en-1-yl)(propyl)amino)butyl)pyrazolo[1,5-a]pyridine-3-carboxamide]",Ki,,1.1 nM
"C#CC1=CC[C@H](N(CCC)CCCCNC(=O)c2ccc(OCCCc3cnn(CCCC)n3)c(OC)c2)CC1 [SC14, (R)-4-(3-(2-butyl-2H-1,2,3-triazol-4-yl)propoxy)-N-(4-((4-ethynylcyclohex-3-en-1-yl)(propyl)amino)butyl)-3-methoxybenzamide]",Ki,[1],4.2 nM
"C#CC1=CC[C@H](N(CCC)CCCCNC(=O)c2cc3ccccc3s2)CC1 [SC15, (R)-N-(4-((4-ethynylcyclohex-3-en-1-yl)(propyl)amino)butyl)benzo[b]thiophene-2-carboxamide]",Ki,[1],3.1 nM
"CCCN(CCC)[C@@H]1Cc2cccc3nc(O)n(c23)C1 [SC17, (R)-5-(dipropylamino)-5,6-dihydro-4H-imidazo[4,5,1-ij]quinolin-2-ol]",Ki,[1],11.4 nM
"Oc1ccc2c(c1)O[C@@H](CNCc1cccc(I)c1)CC2 [SC21, (R)-2-(((3-iodobenzyl)amino)methyl)chroman-7-ol]",Ki,[1],2.06 nM
"Oc1ccc2c(c1)O[C@@H](CNCc1ccc(OCCCCF)cc1)CC2 [SC22, (R)-2-(((4-(4-fluorobutoxy)benzyl)amino)methyl)chroman-7-ol]",Ki,[1],5.6 nM
"Oc1ccc2c(c1)O[C@@H](CNCCN1CCN(c3ccc(OCCF)cc3)CC1)CC2 [SC23, (R)-2-(((2-(4-(4-(2-fluoroethoxy)phenyl)piperazin-1-yl)ethyl)amino)methyl)chroman-7-ol]",Ki,[1],6.67 nM
"CC(C)CCN1CCN2c3cccc4[nH]cc(c34)CC2C1 (stereo not drawn) [SC25, 8-isopentyl-6,6a,7,8,9,10-hexahydro-4H-pyrazino[1,2-a]pyrrolo[4,3,2-de]quinoline]",Ki,[1],24 nM
"c1cc2c3c(c[nH]c3c1)CC1CN(CC3CCCCC3)CCN21 (stereo not drawn) [SC26, 8-(cyclohexylmethyl)-6,6a,7,8,9,10-hexahydro-4H-pyrazino[1,2-a]pyrrolo[4,3,2-de]quinoline]",Ki,[1],53.7 nM
"COc1ccccc1N1CCN(CCCCCNC(=O)c2sc3nc(OC)c(Cl)c(C)c3c2N)CC1 [SC27, 3-amino-5-chloro-6-methoxy-N-(5-(4-(2-methoxyphenyl)piperazin-1-yl)pentyl)-4-methylthieno[2,3-b]pyridine-2-carboxamide]",Ki,[1],3.5 nM
"CC(C)(C)OC(=O)NCCCCCN1CCN(c2cccc(Cl)c2Cl)CC1 [SC28, tert-butyl (5-(4-(2,3-dichlorophenyl)piperazin-1-yl)pentyl)carbamate]",Ki,[1],42.6 nM
"Cc1cc(C)c2c(N)c(C(=O)NCCCCCN3CCN(c4cccc(Cl)c4Cl)CC3)sc2n1 [SC29, 3-amino-N-(5-(4-(2,3-dichlorophenyl)piperazin-1-yl)pentyl)-4,6-dimethylthieno[2,3-b]pyridine-2-carboxamide]",Ki,[1],11.2 nM
"COc1ccccc1N1CCN(CCCNC(=O)OC(C)(C)C)CC1 [SC30, tert-butyl (3-(4-(2-methoxyphenyl)piperazin-1-yl)propyl)carbamate]",Ki,[1],15.8 nM
"COc1ccccc1N1CCN(CCCCCNC(=O)OC(C)(C)C)CC1 [SC31, tert-butyl (5-(4-(2-methoxyphenyl)piperazin-1-yl)pentyl)carbamate]",Ki,[1],12 nM
"C1=C(c2ccccc2)CCN(C[C@@H]2CCC=C(c3ccccc3)C2)C1 [SC32, (R)-4-phenyl-1-((2,3,4,5-tetrahydro-[1,1'-biphenyl]-3-yl)methyl)-1,2,3,6-tetrahydropyridine]",Ki,,8.4 nM
"Oc1ccc(C2=CCC[C@@H](CN3CC=C(c4ccccc4)CC3)C2)cc1 [SC33, (R)-3'-((4-phenyl-3,6-dihydropyridin-1(2H)-yl)methyl)-2',3',4',5'-tetrahydro-[1,1'-biphenyl]-4-ol]",Ki,,0.62 nM
"C#CC1=CC[C@@H](N(CCC)CCCCNC(=O)c2ccc(OCCCc3cn(CCCC)nn3)c(OC)c2)CO1 [SC34, (R)-4-(3-(1-butyl-1H-1,2,3-triazol-4-yl)propoxy)-N-(4-((6-ethynyl-3,4-dihydro-2H-pyran-3-yl)(propyl)amino)butyl)-3-methoxybenzamide]",Ki,[1],1.6 nM
"C#CC1=CC[C@H](N(CCC)CCCCNC(=O)c2ccc(OCCCc3cn(CCCC)nn3)c(OC)c2)CO1 [SC35, (S)-4-(3-(1-butyl-1H-1,2,3-triazol-4-yl)propoxy)-N-(4-((6-ethynyl-3,4-dihydro-2H-pyran-3-yl)(propyl)amino)butyl)-3-methoxybenzamide]",Ki,[1],4.9 nM
"CCCCn1cc(CCCOc2ccc(C(=O)NCCCCN(CCC)CCc3ccc(O)c4[nH]c(=O)ccc34)cc2OC)nn1 [SC36, 4-(3-(1-butyl-1H-1,2,3-triazol-4-yl)propoxy)-N-(4-((2-(8-hydroxy-2-oxo-1,2-dihydroquinolin-5-yl)ethyl)(propyl)amino)butyl)-3-methoxybenzamide]",Ki,[1],24 nM
"CCCCn1cc(CCCOc2ccc(C(=O)NCCCCN(CCC)[C@H]3CCc4c(O)cccc4C3)cc2OC)nn1 [SC37, (S)-4-(3-(1-butyl-1H-1,2,3-triazol-4-yl)propoxy)-N-(4-((5-hydroxy-1,2,3,4-tetrahydronaphthalen-2-yl)(propyl)amino)butyl)-3-methoxybenzamide]",Ki,[1],0.47 nM
"CCCN(CCC)[C@@H]1Cc2cccc3c2n(c(=O)n3CCC)C1 [SC38, (R)-5-(dipropylamino)-1-propyl-5,6-dihydro-4H-imidazo[4,5,1-ij]quinolin-2(1H)-one]",Ki,[1],2.59 nM
"CCCCn1c(=O)n2c3c(cccc31)C[C@@H](NC)C2 [SC39, (R)-1-butyl-5-(methylamino)-5,6-dihydro-4H-imidazo[4,5,1-ij]quinolin-2(1H)-one]",Ki,[1],12.8 nM
"CCCn1c(=O)n2c3c(cccc31)C[C@@H](NC)C2 [SC40, (R)-5-(methylamino)-1-propyl-5,6-dihydro-4H-imidazo[4,5,1-ij]quinolin-2(1H)-one]",Ki,[1],13.2 nM
"CCCN[C@@H]1Cc2cccc3c2n(c(=O)n3CCC)C1 [SC41, (R)-1-propyl-5-(propylamino)-5,6-dihydro-4H-imidazo[4,5,1-ij]quinolin-2(1H)-one]",Ki,[1],8.08 nM
"CCCN[C@@H]1Cc2cccc3c2n(c(=O)n3CCCCOCCCCc2ccccc2)C1 [SC42, (R)-1-(4-(4-phenylbutoxy)butyl)-5-(propylamino)-5,6-dihydro-4H-imidazo[4,5,1-ij]quinolin-2(1H)-one]",Ki,[1],37.2 nM
"CCCN(CCC)[C@@H]1Cc2cccc3c2n(c(=O)n3CCCCNC(=O)c2cc3ccccc3[nH]2)C1 [SC43, (R)-N-(4-(5-(dipropylamino)-2-oxo-5,6-dihydro-4H-imidazo[4,5,1-ij]quinolin-1(2H)-yl)butyl)-1H-indole-2-carboxamide]",Ki,,86.8 nM
"CN[C@@H]1Cc2cccc3c2n(c(=O)n3CCCCOc2ccc3c(c2)NC(=O)CC3)C1 [SC44, (R)-5-(methylamino)-1-(4-((2-oxo-1,2,3,4-tetrahydroquinolin-7-yl)oxy)butyl)-5,6-dihydro-4H-imidazo[4,5,1-ij]quinolin-2(1H)-one]",Ki,[1],338 nM
"CN[C@@H]1Cc2cccc3c2n(c(=O)n3CCOCCOCCOCCCCc2ccccc2)C1 [SC45, (R)-5-(methylamino)-1-(2-(2-(2-(4-phenylbutoxy)ethoxy)ethoxy)ethyl)-5,6-dihydro-4H-imidazo[4,5,1-ij]quinolin-2(1H)-one]",Ki,[1],34.7 nM
"O=c1ccc2c(N3CCCN(CCCCOc4ccn5nccc5c4)CC3)ccc(O)c2[nH]1 [SC46, 8-hydroxy-5-(4-(4-(pyrazolo[1,5-a]pyridin-5-yloxy)butyl)-1,4-diazepan-1-yl)quinolin-2(1H)-one]",Ki,[1],78 nM
"CCCN(CCCCNC(=O)c1cc2ccccc2[nH]1)[C@@H]1Cc2cccc3c2n(c(=O)n3CCC)C1 [SC47, (R)-N-(4-((2-oxo-1-propyl-1,2,5,6-tetrahydro-4H-imidazo[4,5,1-ij]quinolin-5-yl)(propyl)amino)butyl)-1H-indole-2-carboxamide]",Ki,,8.43 nM
